Experimental data published in ChEMBL document CHEMBL4842344, “Design, synthesis and biological activity evaluation of novel scopoletin-NO donor derivatives against MCF-7 human breast cancer in vitro and in vivo” (Eur J Med Chem, 2021).
Each block holds one compound with its values, some of them ahead of it. Calls of active or inactive are those of the source. The rule behind the calls is not given here.

Columns and labels:
MCF7 [1] = assay: Inhibition of PI3K/AKT signalling pathway in human MCF7 cells assessed as reduction in phosphorylated AKT expression measured after 24 hrs by western blot analysis; type: cell-based; conditions: dose 0.5-2 µM
MCF7 [2] = assay: Inhibition of PI3K/AKT signalling pathway in human MCF7 cells assessed as reduction in phosphorylated PI3K expression measured after 24 hrs by western blot analysis; type: cell-based; conditions: dose 0.5-2 µM
MCF7 [3] = assay: Antiproliferative activity against human MCF7 cells assessed as inhibition of cell growth measured after 48 hrs by MTT assay; type: functional, cell-based; conditions: MCF7, 48 h
MDA-MB-231 = assay: Antiproliferative activity against human MDA-MB-231 cells assessed as inhibition of cell growth measured after 48 hrs by MTT assay; type: functional, cell-based; conditions: MDA-MB-231, 48 h
MCF-10A = assay: Cytotoxicity against human MCF-10A cells assessed as reduction in cell viability measured after 48 hrs by MTT assay; type: cell-based
MCF7 [4] = assay: Potency index, ratio of scopoletin derivative 5 IC50 to test compound IC50 for human MCF7 cells assessed as inhibition of cell growth measured after 48 hrs by MTT assay; type: functional
MCF7 [5] = assay: Inhibition of cell proliferation in human MCF7 cells assessed as increase in intracellular NO production at 25 uM measured after 2.5 hrs by nitric oxide assay; type: functional, cell-based
MCF7 [6] = assay: Antiproliferative activity against human MCF7 cells assessed as inhibition of cell proliferation at 2 uM pretreated with hemoglobin NO scavenger for 2 hrs followed by addition of compound and measured after 48 hrs by MTT assay; type: functional, cell-based
MCF7 [7] = assay: Induction of cell cycle arrest in human MCF7 cells assessed as accumulation of cells in G1 phase at 0.25 uM measured after 24 hrs by propidium iodide staining based flow cytometry analysis (Rvb= 54.96%); type: functional
MCF7 [8] = assay: Induction of cell cycle arrest in human MCF7 cells assessed as accumulation of cells in S phase at 0.25 uM measured after 24 hrs by propidium iodide staining based flow cytometry analysis (Rvb= 25.71%); type: functional
MCF7 [9] = assay: Induction of cell cycle arrest in human MCF7 cells assessed as accumulation of cells in G2 phase at 0.25 uM measured after 24 hrs by propidium iodide staining based flow cytometry analysis (Rvb= 18.5%); type: functional
MCF7 [10] = assay: Induction of cell cycle arrest in human MCF7 cells assessed as accumulation of cells in G1 phase at 0.5 uM measured after 24 hrs by propidium iodide staining based flow cytometry analysis (Rvb= 54.96%); type: functional
MCF7 [11] = assay: Induction of cell cycle arrest in human MCF7 cells assessed as accumulation of cells in S phase at 0.5 uM measured after 24 hrs by propidium iodide staining based flow cytometry analysis (Rvb= 25.71%); type: functional
MCF7 [12] = assay: Induction of cell cycle arrest in human MCF7 cells assessed as accumulation of cells in G2 phase at 0.5 uM measured after 24 hrs by propidium iodide staining based flow cytometry analysis (Rvb= 18.5%); type: functional
MCF7 [13] = assay: Induction of cell cycle arrest in human MCF7 cells assessed as accumulation of cells in G1 phase at 1 uM measured after 24 hrs by propidium iodide staining based flow cytometry analysis (Rvb= 54.96%); type: functional
MCF7 [14] = assay: Induction of cell cycle arrest in human MCF7 cells assessed as accumulation of cells in S phase at 1 uM measured after 24 hrs by propidium iodide staining based flow cytometry analysis (Rvb= 25.71%); type: functional
MCF7 [15] = assay: Induction of cell cycle arrest in human MCF7 cells assessed as accumulation of cells in G2 phase at 1 uM measured after 24 hrs by propidium iodide staining based flow cytometry analysis (Rvb= 18.5%); type: functional
MCF7 [16] = assay: Induction of cell cycle arrest in human MCF7 cells assessed as accumulation of cells in G2/M phase at 0.25 to 1 uM measured after 24 hrs by propidium iodide staining based flow cytometry analysis (Rvb= 19.7%); type: functional; conditions: dose 0.25-1 µM
MCF7 [17] = assay: Induction of cell cycle arrest in human MCF7 cells assessed as accumulation of cells in sub G1 phase at 0.25 to 1 uM measured after 24 hrs by propidium iodide staining based flow cytometry analysis (Rvb= 21.1%); type: functional; conditions: dose 0.25-1 µM
MCF7 [18] = assay: Inhibition of PI3K/AKT signalling pathway in human MCF7 cells assessed as reduction in PI3K expression at 0.5 to 2 uM measured after 24 hrs by western blot analysis; type: cell-based; conditions: dose 0.5-2 µM
MCF7 [19] = assay: Inhibition of PI3K/AKT signalling pathway in human MCF7 cells assessed as reduction in AKT expression at 0.5 to 2 uM measured after 24 hrs by western blot analysis; type: cell-based; conditions: dose 0.5-2 µM
MCF7 [20] = assay: Induction of apoptosis in human MCF7 cells assessed as live cells at 0.25 uM measured after 24 hrs by Annexin-V FITC/PI staining based flow cytometry analysis (Rvb= 93.0%); type: functional
MCF7 [21] = assay: Induction of apoptosis in human MCF7 cells assessed as early apoptotic cells at 0.25 uM measured after 24 hrs by Annexin-V FITC/PI staining based flow cytometry analysis (Rvb= 1.33%); type: functional
MCF7 [22] = assay: Induction of apoptosis in human MCF7 cells assessed as late apoptotic cells at 0.25 uM measured after 24 hrs by Annexin-V FITC/PI staining based flow cytometry analysis (Rvb= 5.61%); type: functional
MCF7 [23] = assay: Induction of apoptosis in human MCF7 cells assessed as dead cells at 0.25 uM measured after 24 hrs by Annexin-V FITC/PI staining based flow cytometry analysis (Rvb= 0.06%); type: functional
MCF7 [24] = assay: Induction of apoptosis in human MCF7 cells assessed as live cells at 0.5 uM measured after 24 hrs by Annexin-V FITC/PI staining based flow cytometry analysis (Rvb= 93.0%); type: functional
MCF7 [25] = assay: Induction of apoptosis in human MCF7 cells assessed as early apoptotic cells at 0.5 uM measured after 24 hrs by Annexin-V FITC/PI staining based flow cytometry analysis (Rvb= 1.33%); type: functional
MCF7 [26] = assay: Induction of apoptosis in human MCF7 cells assessed as late apoptotic cells at 0.5 uM measured after 24 hrs by Annexin-V FITC/PI staining based flow cytometry analysis (Rvb= 5.61%); type: functional
MCF7 [27] = assay: Induction of apoptosis in human MCF7 cells assessed as dead cells at 0.5 uM measured after 24 hrs by Annexin-V FITC/PI staining based flow cytometry analysis (Rvb= 0.06%); type: functional
MCF7 [28] = assay: Induction of apoptosis in human MCF7 cells assessed as live cells at 1 uM measured after 24 hrs by Annexin-V FITC/PI staining based flow cytometry analysis (Rvb= 93.0%); type: functional
MCF7 [29] = assay: Induction of apoptosis in human MCF7 cells assessed as early apoptotic cells at 1 uM measured after 24 hrs by Annexin-V FITC/PI staining based flow cytometry analysis (Rvb= 1.33%); type: functional
MCF7 [30] = assay: Induction of apoptosis in human MCF7 cells assessed as late apoptotic cells at 1 uM measured after 24 hrs by Annexin-V FITC/PI staining based flow cytometry analysis (Rvb= 5.61%); type: functional
MCF7 [31] = assay: Induction of apoptosis in human MCF7 cells assessed as dead cells at 1 uM measured after 24 hrs by Annexin-V FITC/PI staining based flow cytometry analysis (Rvb= 0.06%); type: functional
MCF7 [32] = assay: Induction of apoptosis in human MCF7 cells assessed as upregulation of Bax expression at 0.5 to 2 uM measured after 24 hrs by western blot analysis; type: functional, cell-based; conditions: dose 0.5-2 µM
MCF7 [33] = assay: Induction of apoptosis in human MCF7 cells assessed as upregulation of Bad expression at 0.5 to 2 uM measured after 24 hrs by western blot analysis; type: functional, cell-based; conditions: dose 0.5-2 µM
MCF7 [34] = assay: Induction of apoptosis in human MCF7 cells assessed as downregulation of Bcl-2 expression at 0.5 to 2 uM measured after 24 hrs by western blot analysis; type: functional, cell-based; conditions: dose 0.5-2 µM
MCF7 [35] = assay: Induction of apoptosis in human MCF7 cells assessed as increase in cleavage of PARP-1 at 0.5 to 2 uM measured after 24 hrs by western blot analysis; type: functional, cell-based; conditions: dose 0.5-2 µM
MCF7 [36] = assay: Antitumor activity against human MCF7 cells xenografted in ip dosed BALB/c nude mouse assessed as tumor growth inhibition administered once every 2 days for 21 consecutive days; type: functional, organism-based; conditions: time 21.0 day
MCF7 [37] = assay: Antitumor activity against human MCF7 cells xenografted in BALB/c nude mouse assessed as reduction in tumor volume at 30 mg/kg, ip administered once every 2 days for 21 consecutive days relative to control; type: functional; set-up: scale not given: the % may be the effect or the level left; conditions: time 21 day
MCF7 [38] = assay: Antitumor activity against human MCF7 cells xenografted in BALB/c nude mouse assessed as tumor growth inhibition at 60 mg/kg, ip administered once every 2 days for 21 consecutive days relative to control; type: functional; conditions: 504 h, time 21 day, read-out: TGI
MCF7 [39] = assay: Antitumor activity against human MCF7 cells xenografted in BALB/c nude mouse assessed as reduction in tumor weight at 30 to 60 mg/kg, ip administered once every 2 days for 21 consecutive days; type: functional, organism-based; conditions: dose 30-60 mg/kg, time 21.0 day
[40] = Toxicity in BALB/c mouse xenografted with human MCF7 cells assessed as weight loss at 30 to 60 mg/kg, ip measured after 21 days; type: organism-based; conditions: in vivo, 504 h, dose 30-60 mg/kg, time 21 day
[41] = Toxicity in BALB/c mouse xenografted with human MCF7 cells assessed as effect on heart at 30 to 60 mg/kg, ip measured after 21 days by hematoxylin and eosin staining based histopathological analysis; type: organism-based; conditions: in vivo, 504 h, dose 30-60 mg/kg, time 21 day
[42] = Toxicity in BALB/c mouse xenografted with human MCF7 cells assessed as effect on lung at 30 to 60 mg/kg, ip measured after 21 days by hematoxylin and eosin staining based histopathological analysis; type: organism-based; conditions: in vivo, 504 h, dose 30-60 mg/kg, time 21 day
[43] = Toxicity in BALB/c mouse xenografted with human MCF7 cells assessed as effect on liver at 30 to 60 mg/kg, ip measured after 21 days by hematoxylin and eosin staining based histopathological analysis; type: organism-based; conditions: in vivo, 504 h, dose 30-60 mg/kg, time 21 day
[44] = Toxicity in BALB/c mouse xenografted with human MCF7 cells assessed as effect on spleen at 30 to 60 mg/kg, ip measured after 21 days by hematoxylin and eosin staining based histopathological analysis; type: organism-based; conditions: in vivo, 504 h, dose 30-60 mg/kg, time 21 day
[45] = Toxicity in BALB/c mouse xenografted with human MCF7 cells assessed as effect on kidney at 30 to 60 mg/kg, ip measured after 21 days by hematoxylin and eosin staining based histopathological analysis; type: organism-based; conditions: in vivo, 504 h, dose 30-60 mg/kg, time 21 day

SMILES: COc1cc2cc(C(=O)NCc3ccc(F)cc3)c(=O)oc2cc1OCCCOc1no[n+]([O-])c1S(=O)(=O)c1ccccc1
- inhibition (MCF7 [1]): Dose-Dependent Effect
- inhibition (MCF7 [2]): Dose-Dependent Effect
- IC50 (MCF7 [3]): 0.37 µM
- IC50 (MDA-MB-231): 0.77 µM
- IC50 (MCF-10A): 8.46 µM
- Ratio IC50 (MCF7 [4]): 5
- Activity (MCF7 [5]): Active
- Activity (MCF7 [6]): inactive
- Activity (MCF7 [7]): 52.88%
- Activity (MCF7 [8]): 20.8%
- Activity (MCF7 [9]): 25.76%
- Activity (MCF7 [10]): 40.11%
- Activity (MCF7 [11]): 19.05%
- Activity (MCF7 [12]): 38.44%
- Activity (MCF7 [13]): 36.65%
- Activity (MCF7 [14]): 18.16%
- Activity (MCF7 [15]): 44.96%
- Activity (MCF7 [16]): 47.1%
- Activity (MCF7 [17]): 50%
- inhibition (MCF7 [18]): inactive
- inhibition (MCF7 [19]): inactive
- Activity (MCF7 [20]): 87.5%
- Activity (MCF7 [21]): 5.72%
- Activity (MCF7 [22]): 6.53%
- Activity (MCF7 [23]): 0.153%
- Activity (MCF7 [24]): 83.1%
- Activity (MCF7 [25]): 7.49%
- Activity (MCF7 [26]): 9.19%
- Activity (MCF7 [27]): 0.196%
- Activity (MCF7 [28]): 62%
- Activity (MCF7 [29]): 9.38%
- Activity (MCF7 [30]): 27.2%
- Activity (MCF7 [31]): 1.41%
- Activity (MCF7 [32]): Active
- Activity (MCF7 [33]): Active
- Activity (MCF7 [34]): Dose-Dependent Effect
- Activity (MCF7 [35]): Active
- Activity (MCF7 [36]): Dose-Dependent Effect
- Activity (MCF7 [37]): 63.3%
- inhibition in vivo at 60 mg/kg (MCF7 [38]): 75.2%
- Activity (MCF7 [39]): Active
- Activity [40]: Non-Toxic
- Activity [41]: Non-Toxic
- Activity [42]: Non-Toxic
- Activity [43]: Non-Toxic
- Activity [44]: Non-Toxic
- Activity [45]: Non-Toxic

- IC50 (MCF7 [3]): 0.64 µM
- IC50 (MDA-MB-231): 0.98 µM
SMILES: COc1cc2cc(C(=O)NCCc3ccccc3)c(=O)oc2cc1OCCCOc1no[n+]([O-])c1S(=O)(=O)c1ccccc1
- IC50 (MCF-10A): 6.33 µM
- Activity (MCF7 [5]): Active

- IC50 (MCF7 [3]): 0.56 µM
- IC50 (MDA-MB-231): 0.78 µM
SMILES: COc1ccc(CNC(=O)c2cc3cc(OC)c(OCCCOc4no[n+]([O-])c4S(=O)(=O)c4ccccc4)cc3oc2=O)cc1
- IC50 (MCF-10A): 5.95 µM
- Activity (MCF7 [5]): Active

- IC50 (MCF7 [3]): > 25 µM
- IC50 (MDA-MB-231): > 25 µM
SMILES: COc1cc2ccc(=O)oc2cc1O [SCOPOLETIN]
- IC50 (MCF-10A): > 25 µM
